Experiments:
human patients with ALS = details: cited from earlier work
[1] = tested on: hSOD1^G93A transgenic ALS mice; assay: Minocycline treatment of ALS mice: Rotarod onset and mortality; type: in vivo, mouse
Protocol: We tested the effectiveness of minocycline on a mouse model of ALS and investigated its mechanism of neuroprotection. […] We evaluated the effect of minocycline on one of the ALS mouse models expressing the mutant human SOD1^G93A transgene. Minocycline (10 mg/kg body weight/day) was injected beginning at five weeks of age. Mutant hSOD1^G93A transgenic mice were evaluated weekly on a Rotarod to follow disease progression.
Minocycline administration started at six weeks of age at a slightly higher dose (11 mg/kg body weight/day).
ALS mice (Jackson Laboratories, Bar Harbor, Me.) were injected intraperitoneally daily with saline or minocycline (Sigma, St. Louis, Mo.). Strength and coordination were evaluated weekly by Rotarod (Columbus Instruments, Columbus, Ohio). Disease onset was defined as the first day a mouse could not remain on the Rotarod for 10 min at 15 rpm. Mortality was scored as age of death or age when the mouse was unable to right itself within 30 seconds (Li et al., supra).

Compound: Nc1nc2ccc(OC(F)(F)F)cc2s1 [riluzole]
- side effects (human patients with ALS): causes liver damage

Compound: CN(C)c1ccc(O)c2c1C[C@H]1C[C@H]3[C@H](N(C)C)C(O)=C(C(N)=O)C(=O)[C@@]3(O)C(O)=C1C2=O [Minocycline]
- Onset of impaired motor performance (Rotarod), age ([1]; 10 mg/kg body weight/day i.p. from five weeks of age, saline 90.3±2.2 days, P<0.001): 109.0 ± 1.5 days
- Survival, age ([1]; 10 mg/kg body weight/day i.p. from five weeks of age, saline 125.6±3.4 days, P<0.01): 136.8 ± 1.2 days
- Mortality, age ([1]; modified protocol: 11 mg/kg body weight/day from six weeks of age, n=8/group, saline 126.3±2.7 days, P<0.05): 139.0 ± 2.1 days

— US20040072205A1, “Methods for treating neuronal disorders” (priority 2002, published 2004)
